Reference: publication PMC7570966 (Molecules, 2020)
Where two headings read alike, the source gives them in different places.

Legend:
[1] = target: T1, acetylcholinesterase (AChE) (Electrophorus electricus, UniProt O42275); assay: biochemical; details: Ellman's method, pH 8, triplicate
T1 construct: purchased Sigma–Aldrich (St. Louis, MO, USA)
Protocol: AChE inhibitory activities of the synthesized flavone derivatives were determined by Ellman’s method [45]. […] The assay was performed as described earlier [46] in 96-well microtiter plates using the EMR-500 ELISA system (Labomed, Los Angeles, CA, USA). Each well of the plate contained a mixture of sodium phosphate buffer pH 8, sample (studied compounds or reference), acetylcholinesterase, ATCI, and 5,5′-dithio-bisnitrobenzoic acid (DTNB). The absorbance was recorded at 405 nm. All samples were assayed in triplicate.

β-secretase (BACE-1) = target: T2, β-secretase (BACE-1) (Homo sapiens, UniProt P56817); assay: biochemical
T2 construct: purchased Sigma–Aldrich
Description: A fluorescence β-Secretase (BACE-1) Activity Detection Kit was purchased from Sigma–Aldrich and used to determine the effect of the synthesized flavone derivatives on β-secretase activity. […] The enzyme solution was reacted with the substrate (7-methoxycumarin-4-acetyl-(Asn670, Lue671)-amyloid β/A4 precursor protein 770 fragment 667–676-(2,4-dinitrophenyl))Lys-Arg-Arg amide trifluoroacetate salt and sulfated polysaccharide samples in a fluorescence assay buffer in different wells. Baseline readings were measure immediately on an F-7000 fluorescence spectrophotometer (Hitachi, Tokyo, Japan; excitation: 320 nm; emission: 405 nm) and repeated after 2 h incubation at 37 °C.

[2] = fluorescence kit, 2 h incubation at 37 °C, read-out: BACE-1 IC50
[3] = observed, -logIC50, read-out: BACE-1 Obs. pIC50 (converted)

T1 sequence (O42275 24-633): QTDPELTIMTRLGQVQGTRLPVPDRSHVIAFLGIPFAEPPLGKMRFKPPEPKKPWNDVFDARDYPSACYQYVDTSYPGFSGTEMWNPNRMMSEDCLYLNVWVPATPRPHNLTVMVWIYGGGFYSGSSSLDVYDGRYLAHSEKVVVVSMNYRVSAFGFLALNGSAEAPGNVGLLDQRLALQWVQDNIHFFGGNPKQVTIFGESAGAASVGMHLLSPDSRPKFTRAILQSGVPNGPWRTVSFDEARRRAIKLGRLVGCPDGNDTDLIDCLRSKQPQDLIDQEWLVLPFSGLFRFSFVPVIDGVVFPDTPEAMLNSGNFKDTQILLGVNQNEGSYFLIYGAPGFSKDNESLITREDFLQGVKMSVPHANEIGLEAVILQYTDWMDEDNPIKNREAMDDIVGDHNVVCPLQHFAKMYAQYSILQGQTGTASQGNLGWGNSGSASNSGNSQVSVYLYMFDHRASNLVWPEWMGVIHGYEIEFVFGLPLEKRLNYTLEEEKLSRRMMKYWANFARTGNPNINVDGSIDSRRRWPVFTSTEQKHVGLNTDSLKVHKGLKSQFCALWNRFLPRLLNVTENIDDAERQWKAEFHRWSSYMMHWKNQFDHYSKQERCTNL
T2 sequence (P56817 46-501): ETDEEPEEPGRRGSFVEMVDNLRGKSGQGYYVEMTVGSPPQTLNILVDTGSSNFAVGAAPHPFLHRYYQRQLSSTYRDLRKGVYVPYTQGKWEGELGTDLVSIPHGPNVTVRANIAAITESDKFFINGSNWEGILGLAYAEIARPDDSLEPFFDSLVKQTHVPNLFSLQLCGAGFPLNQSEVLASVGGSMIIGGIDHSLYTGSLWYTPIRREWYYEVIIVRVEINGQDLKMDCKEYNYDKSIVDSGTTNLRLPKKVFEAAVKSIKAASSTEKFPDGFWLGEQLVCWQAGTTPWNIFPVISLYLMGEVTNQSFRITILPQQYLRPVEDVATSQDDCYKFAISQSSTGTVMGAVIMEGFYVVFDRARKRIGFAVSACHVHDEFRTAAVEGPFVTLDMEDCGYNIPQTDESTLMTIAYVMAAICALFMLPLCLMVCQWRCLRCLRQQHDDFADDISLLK

O=c1cc(-c2ccccc2)oc2cc(O)c(O)c(O)c12 [Compound B1, Baicalein]
IC50 [1]: 37.1 µM

COc1cc2oc(-c3ccccc3)cc(=O)c2c(O)c1OC [Compound B2, 5-Hydroxy-6,7-dimethoxyflavone]
IC50 [1]: 25.5 µM
IC50 (β-secretase (BACE-1); [2]): 43.6 µM
IC50 (β-secretase (BACE-1); [3]): 43.7 µM

CCOc1cc2oc(-c3ccccc3)cc(=O)c2c(O)c1OCC [Compound B3, 6,7-Diethoxy-5-hydroxyflavone]
IC50 [1]: 30 µM
IC50 (β-secretase (BACE-1); [2]): 3.98 µM
IC50 (β-secretase (BACE-1); [3]): 3.98 µM

C=CCOc1cc2oc(-c3ccccc3)cc(=O)c2c(O)c1OCC=C [Compound B4, 6,7-Diallyloxy-5-hydroxyflavone]
IC50 [1]: 51.8 µM
IC50 (β-secretase (BACE-1); [2]): 70.8 µM
IC50 (β-secretase (BACE-1); [3]): 70.8 µM

C=CCOc1cc2oc(-c3ccccc3)cc(=O)c2c(OCC=C)c1OCC=C [Compound B5, 5,6,7-Triallyloxyflavone]
IC50 [1]: 191 µM
IC50 (β-secretase (BACE-1); [2]): 17 µM
IC50 (β-secretase (BACE-1); [3]): 17 µM

O=c1cc(-c2ccccc2)oc2cc(OCc3ccccc3)c(OCc3ccccc3)c(OCc3ccccc3)c12 [Compound B6, 5,6,7-Tribenzyloxyflavone]
IC50 [1]: 80.3 µM
IC50 (β-secretase (BACE-1); [2]): 12.6 µM
IC50 (β-secretase (BACE-1); [3]): 12.6 µM

CC(=O)Oc1cc2oc(-c3ccccc3)cc(=O)c2c(OC(C)=O)c1OC(C)=O [Compound B7, 5,6,7-Triacetoxyflavone]
IC50 [1]: 51.3 µM
IC50 (β-secretase (BACE-1); [2]): 31.6 µM
IC50 (β-secretase (BACE-1); [3]): 31.6 µM

CCC(=O)Oc1cc2oc(-c3ccccc3)cc(=O)c2c(OC(=O)CC)c1OC(=O)CC [Compound B8, 5,6,7-Tripropionoxyflavone]
IC50 [1]: 66.2 µM
IC50 (β-secretase (BACE-1); [2]): 22.4 µM
IC50 (β-secretase (BACE-1); [3]): 22.4 µM

COc1cc(O)c2c(=O)cc(-c3ccc(OC)c(OC)c3)oc2c1 [Compound D2, 5-Hydroxy-3’,4’,7-trimethoxyflavone]
IC50 [1]: 87.1 µM
IC50 (β-secretase (BACE-1); [2]): 2.14 µM
IC50 (β-secretase (BACE-1); [3]): 2.14 µM

CCOc1cc(O)c2c(=O)cc(-c3ccc(OC)c(OCC)c3)oc2c1 [Compound D3, 3’,7-Diethoxy-5-hydroxy-4’-methoxyflavone]
IC50 [1]: 129 µM
IC50 (β-secretase (BACE-1); [2]): 3.16 µM
IC50 (β-secretase (BACE-1); [3]): 3.16 µM

C=CCOc1cc(O)c2c(=O)cc(-c3ccc(OC)c(OCC=C)c3)oc2c1 [Compound D4, 3’,7-Diallyloxy-5-hydroxy-4’-methoxyflavone]
IC50 [1]: 151 µM
IC50 (β-secretase (BACE-1); [2]): 3.6 µM
IC50 (β-secretase (BACE-1); [3]): 3.63 µM

COc1cc(OC)c2c(=O)cc(-c3ccc(OC)c(OC)c3)oc2c1 [Compound D5, 3’,4’,5,7-Tetramethoxyflavone]
IC50 [1]: 73.8 µM
IC50 (β-secretase (BACE-1); BACE-1 IC50, fluorescence kit, 2 h incubation at 37 °C): 1.66 µM
IC50 (β-secretase (BACE-1); BACE-1 Obs. pIC50, observed, -logIC50): 1.66 µM

CCOc1cc(OCC)c2c(=O)cc(-c3ccc(OC)c(OCC)c3)oc2c1 [Compound D6, 3′,5,7-Triethoxy-4′-methoxyflavone]
IC50 [1]: 75.9 µM
IC50 (β-secretase (BACE-1); [2]): 1.58 µM
IC50 (β-secretase (BACE-1); [3]): 1.58 µM

COc1ccc(-c2cc(=O)c3c(O)cc(OC(=O)c4ccccc4)cc3o2)cc1OC(=O)c1ccccc1 [Compound D7, 3’,7-Dibenzoyloxy-5-hydroxy-4’-methoxyflavone]
IC50 [1]: 340 µM
IC50 (β-secretase (BACE-1); [2]): 2.86 µM
IC50 (β-secretase (BACE-1); [3]): 2.88 µM
